Measured values published in patent US6864363B2 (priority 2000, dated 2005).
Values joined by “and” are separate entries in the source; they are usually repeats but may differ in a detail not shown here. Equal values may be shown once. Square brackets hold non-standard residues; d marks the D form. Peptide text beside a SMILES is read from it. * marks the point of attachment. Sta = CC(C)C[C@H](N)[C@@H](O)CC(=O)O; Isovaleryl = CC(C)CC(=O)*

What was measured:
Format in all cases: biochemical, Porphyromonas gingivalis
P. gingivalis DPP-7 [1] = assay: Endopeptidase activity of DPP-7 on protein substrates and plasma inhibitors
P. gingivalis DPP-7 [2] = system: P. gingivalis DPP-7
[3] = pH optimum and stability of purified DPP-7 (activity against H-Ala-Phe-pNA)
Procedure: Kinetic Analysis—Routinely, the dipeptidylpeptidase amidolytic activity was measured with H-Ala-Phe-pNA (1 mM) in 0.2 M HEPES, pH 7.8 at 37° C. The reaction was followed for specific time intervals in a thermostated ELISA reader (SpectraMax, Applied Biosystem) and the release of p-nitroaniline was monitored at 405 nm. Other p-nitroanilide substrates were used in the same manner. For inhibition studies, the enzyme was first preincubated with an inhibitor for 15 minutes at 37° C., substrate added, and residual activity recorded. The initial steady-state velocity (v0) was determined by continuous assay for the range of substrate concentrations (100 nM to 1 mM). Km and Vmax were determined by hyperbolic regression of the kinetic data using the software package Hyper Version 1.02 obtained from Dr. J. S. Easterby (University of Liverpool, UK).
pH Optimum and Stability—Purified DPP-7 was active against H-Ala-Phe-pNA over a broad pH range, from neutral to basic pH (6.5-9.0) (FIG. 3). This activity also changed with the ionic strength of the buffer, reaching 200% at 0.5 M NaCl concentration in 100 mM HEPES, pH 8.0. DPP-7 was stable in 0.2 M HEPES, pH 8.0, for one week at 4° C. […] After 3 hours incubation at either room temperature or 37° C., activity was reduced to 62% and 20%, respectively. The optimum temperature for the hydrolysis of H-Ala-Phe-pNA was determined to be 43° C.

Q: With gelatin as the molecule, how does the “endopeptidase activity of DPP-7 on protein substrate” value (P. gingivalis DPP-7 [1]) read?
A: did not show any endopeptidase activity

Q: Which “% of residual activity” value (P. gingivalis DPP-7 [2]) does the source give for `CC(=O)N[C@@H](CC(C)C)C(=O)N[C@@H](CC(C)C)C(=O)N[C@H](C=O)CCCNC(=N)N` [Leupeptin] here?
A: 107%

Q: For `NCCCC[C@H](N)C(=O)NCC(=O)O` [Lys-Gly] (H-Lys-Gly-OH), which “% of residual activity” value (P. gingivalis DPP-7 [2]) is on record?
A: 96%

Q: For “α2-macroglobulin: human plasma inhibitor”, which “inactivation of / influence on DPP-7 activity (in words)” value (shortened to “inactivation of / influence”) (P. gingivalis DPP-7 [2]) is on record?
A: did not effect enzyme activity

Q: With insulin β chain as the molecule, how does the “endopeptidase activity of DPP-7 on protein substrate” value (P. gingivalis DPP-7 [1]) read?
A: did not show any endopeptidase activity

Q: What does the source list for `Cl.NCCc1ccc(S(=O)(=O)F)cc1` [PEFABLOCK, 4-(2-aminoethyl)-benzenesulfonyl fluoride hydrochloride]?
A: % of residual activity (P. gingivalis DPP-7 [2]): 1%; inactivation of / influence on DPP-7 activity (in words) (P. gingivalis DPP-7 [2]): inactivated

Q: Which “% of residual activity” value (P. gingivalis DPP-7 [2]) does the source give for `O=c1oc(Cl)c(Cl)c2ccccc12` [3,4-dichloroisocoumarin] here?
A: 0%

Q: And the “inactivation of / influence” value (P. gingivalis DPP-7 [2])?
A: inactivated

Q: For Triton X-100, which “% of residual activity” value (P. gingivalis DPP-7 [2]) is on record?
A: 144% and 103% and 94%

Q: And the “inactivation of / influence” value (P. gingivalis DPP-7 [2])?
A: not sensitive to inactivation

Q: With `c1cnc2c(c1)ccc1cccnc12` [1,10-orthophenanthroline] as the molecule, how does the “% of residual activity” value (P. gingivalis DPP-7 [2]) read?
A: 98%

Q: And the “inactivation of / influence” value (P. gingivalis DPP-7 [2])?
A: did not influence its activity

Q: With “α1-proteinase inhibitor: human plasma inhibitor” as the molecule, how does the “inactivation of / influence” value (P. gingivalis DPP-7 [2]) read?
A: did not effect enzyme activity

Q: With `N[C@@H](CS)C(=O)O` [Cysteine] as the molecule, how does the “% of residual activity” value (P. gingivalis DPP-7 [2]) read?
A: 90%

Q: For `C[C@H](NC(=O)CN)C(=O)O` [Gly-Ala] (H-Gly-Ala-OH), which “% of residual activity” value (P. gingivalis DPP-7 [2]) is on record?
A: 102%

Q: For `CC(C)CC(=O)N[C@H](C(=O)N[C@H](C(=O)N[C@@H](CC(C)C)[C@@H](O)CC(=O)N[C@@H](C)C(=O)N[C@@H](CC(C)C)[C@@H](O)CC(=O)O)C(C)C)C(C)C` [Pepstatin] (Isovaleryl-VV[Sta]A[Sta]-OH), which “% of residual activity” value (P. gingivalis DPP-7 [2]) is on record?
A: 127%

Q: With `O=C(O)CN(CCN(CC(=O)O)CC(=O)O)CC(=O)O` [EDTA] as the molecule, how does the “% of residual activity” value (P. gingivalis DPP-7 [2]) read?
A: 90%

Q: What about the “inactivation of / influence” value (P. gingivalis DPP-7 [2]) of the same molecule?
A: did not influence its activity

Q: Which “% of residual activity” value (P. gingivalis DPP-7 [2]) does the source give for `O=C(O)CI` [Iodoacetic acid] here?
A: 102%

Q: What about the “inactivation of / influence” value (P. gingivalis DPP-7 [2]) of the same molecule?
A: not

Q: Which “inactivation of / influence” value (P. gingivalis DPP-7 [2]) does the source give for `CCCCCCCCCCCCOS(=O)(=O)[O-].[Na+]` [SDS] here?
A: not sensitive to inactivation

B1: α1-antichymotrypsin: human plasma inhibitor (protein)
chain: HPNSPLDEENLTQENQDRGTHVDLGLASANVDFAFSLYKQLVLKAPDKNVIFSPLSISTALAFLSLGAHNTTLTEILKGLKFNLTETSEAEIHQSFQHLLRTLNQSSDELQLSMGNAMFVKEQLSLLDRFTEDAKRLYGSEAFATDFQDSAAAKKLINDYVKNGTRGKITDLIKDLDSQTMMVLVNYIFFKAKWEMPFDPQDTHQSRFYLSKKKWVMVPMMSLHHLTIPYFRDEELSCTVVELKYTGNASALFILPDQDKMEEVEAMLLPETLKRWRDSLEFREIGELYLPKFSISRDYNLNDILLQLGIEEAFTSKADLSGITGARNLAVSQVVHKAVLDVFEEGTEASAATAVKITLLSALVETRTIVRFNRPFLMIIVPTDTQNIFFMSKVTNPKQA
Q: For B1, which “inactivation of / influence” value (P. gingivalis DPP-7 [2]) is on record?
A: did not effect enzyme activity

B2: DPP-7: P. gingivalis dipeptidylpeptidase-7, a 76 kDa serine protease purified from the membrane fraction (protein, listed as Porphyromonas gingivalis)
chain: MQMKLKSILLGAALLLGASGVAKADKGMWLLNELNQENLDRMRELGFTLPLDSLYSFDKPSIANAVVIFGGGCTGITVSDQGLIFTNHHCGYGAIQSQSTVDHDYLRDGFVSRTMGEELPIPGLSVKYLRKIVKVTDKVEGQLKGITDEMERLRKAQEVCQELAKKENADENQLCIVEPFYSNNEYFLIVYDVFKDVRMVFAPPSSVGKFGGDTDNWMWPRHTGDFSVFRVYAGADNRPAEYSKDNKPYKPVYFAAVSMQGYKADDYAMTIGFPGSTDRYLTSWGVEDRIENENNPRIEVRGIKQGIWKEAMSADQATRIKYASKYAQSANYWKNSIGMNRGLARLDVIGRKRAEERAFADWIRKNGKSAVYGDVLSSLEKAYKEGAKANREMTYLSETLFGGTEVVRFAQFANALATNPDAHAGILKSLDDKYKDYLPSLDRKVLPAMLDIVRRRIPADKLPDIFKNVIDKKFKGDTKKYADFVFDKSVVPYSDKFHAMLKSMDKEKFAKAIEKDPAVELSKSVIAAARAIQADAMANAYAIEKGKRLFFAGLREMYPGRALPSDANFTMRMSYGSIKGYEPQDGAWYNYHTTGKGVLEKQDPKSDEFAVQENILDLFRTKNYGRYAENGQLHIAFLSNNDITGGNSGSPVFDKNGRLIGLAFDGNWEAMSGDIEFEPDLQRTISVDIRYVLFMIDKWGQCPRLIQELKLI
Q: For B2, which “optimum temperature for the hydrolysis of H-Ala-Phe-pNA” value [3] is on record?
A: 43 °C

Q: What about the stability ([3]; 0.2 M HEPES, pH 8.0, one week at 4° C.) of the same molecule?
A: stable

Q: What about the “activity with ionic strength of the buffer” value ([3]; 0.5 M NaCl in 100 mM HEPES, pH 8.0) of the same molecule?
A: 200%

Q: What about the “activity remaining after incubation” value ([3]; 3 hours at 37° C.) of the same molecule?
A: 20%

Q: And the “activity remaining after incubation” value ([3]; 3 hours at room temperature)?
A: 62%

Q: What about the “stability, loss of activity” value ([3]; kept frozen at −80° C. for one month) of the same molecule?
A: no appreciable loss of activity
